According to patent US20060063736A1, “Compositions and methods for inhibiting mucin-type O-linked glycosylation” (priority 2004, published 2006):
Read-outs that look alike come from different tables or passages of the source.

How the values were obtained:
mppGalNAcT-4 = target: T1, mppGalNAcT-4 (Mus musculus, UniProt O08832); test: ELLA for ppGalNAcTs, mppGalNAcT-4; assay type: biochemical, murine; conditions: 20 μM UDP-GalNAc, 50 μM EA2 peptide 4
T1 construct: plasmids encoding truncated secreted ppGalNAcTs-1 to −5, -7, -10 and -11; made in house; host or cells: COS-7
T1 sequence (O08832 36-578 limits assumed): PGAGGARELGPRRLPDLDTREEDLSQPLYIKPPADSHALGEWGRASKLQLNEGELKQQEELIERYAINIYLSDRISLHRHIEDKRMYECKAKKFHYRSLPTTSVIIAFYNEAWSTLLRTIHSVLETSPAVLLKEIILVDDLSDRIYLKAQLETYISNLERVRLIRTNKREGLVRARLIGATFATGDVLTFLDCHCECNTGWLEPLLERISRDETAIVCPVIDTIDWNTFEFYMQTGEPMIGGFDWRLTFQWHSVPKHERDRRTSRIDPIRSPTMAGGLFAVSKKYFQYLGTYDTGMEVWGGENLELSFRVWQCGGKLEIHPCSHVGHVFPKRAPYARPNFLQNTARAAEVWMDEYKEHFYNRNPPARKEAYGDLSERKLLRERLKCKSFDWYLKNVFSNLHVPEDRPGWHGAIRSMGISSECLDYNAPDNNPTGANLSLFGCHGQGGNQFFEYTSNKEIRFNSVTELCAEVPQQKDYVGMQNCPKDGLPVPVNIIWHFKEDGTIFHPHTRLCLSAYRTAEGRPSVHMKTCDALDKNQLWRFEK
Method: (§1) COS-7 cells were transiently transfected with plasmids encoding truncated secreted ppGalNAcTs-1 to −5, -7, -10 and -11 as previously described. Hagen et al. (1997) J. Biol. Chem. 272:13843-13848. The crude conditioned medium was used as the enzyme source.
(§2) Standard reaction conditions for ppGalNAcT assays were as follows. The reaction mixture contained the following components in a final volume of 25 μL: 10 mM MnCl2, 40 mM sodium cacodylate, 40 mM β-mercaptoethanol, 0.1% Triton X-100, pH 6.5, 5 μL of conditioned media, and various concentrations of EA2 peptide 4, UDP-GalNAc and inhibitor. All uridine-based compounds were dissolved in dimethyl sulfoxide (DMSO). […] Reaction rates were linear over the period monitored (20-30 min).
(§3) 96-Well NeutrAvidin-coated plates were prewashed 3 times with 200 μL of wash buffer (25 mM Tris, 150 mM NaCl, 0.1% bovine serum albumin (BSA) (w/v), and 0.05% Tween (v/v), pH 7.2). […] After 3 washes with 200 μL of PBS, bound HPA-HRP was quantified by the addition of 100 μL of TMB peroxide solution. […] HRP activity was terminated by the addition of 50 μL of 2 N H2SO4 and the resulting solution was analyzed at 450 nm using a UV/Vis microtiter plate reader. The amount of product generated by the ppGalNAcT was extrapolated from absorbance values using an equation fit to the standard curve derived from Origin 6.1 software.

[1] = target: T2, UDP-GlcNAc/GalNAc C4-epimerase (Homo sapiens, UniProt Q14376); conditions: Winans and Bertozzi (2002); cited from earlier work
T2 sequence (Q14376 1-348): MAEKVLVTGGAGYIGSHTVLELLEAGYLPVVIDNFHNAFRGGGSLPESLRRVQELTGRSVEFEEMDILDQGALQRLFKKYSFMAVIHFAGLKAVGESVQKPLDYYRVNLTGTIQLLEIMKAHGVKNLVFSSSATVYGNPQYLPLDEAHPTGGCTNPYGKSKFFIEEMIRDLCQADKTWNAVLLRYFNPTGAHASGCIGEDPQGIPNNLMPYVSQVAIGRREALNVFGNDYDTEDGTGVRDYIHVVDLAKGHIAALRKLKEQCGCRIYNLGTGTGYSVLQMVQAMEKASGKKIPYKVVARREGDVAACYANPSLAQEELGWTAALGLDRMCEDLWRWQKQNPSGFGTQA

mppGalNAcT-2 = target: T3, mppGalNAcT-2 (Mus musculus, UniProt Q6PB93); test: ELLA for ppGalNAcTs, mppGalNAcT-2; assay type: biochemical, murine; conditions: 20 μM UDP-GalNAc, 50 μM EA2 peptide 4
T3 construct: plasmids encoding truncated secreted ppGalNAcTs-1 to −5, -7, -10 and -11; made in house; host or cells: COS-7
Method: as §1, §2, §3

Jurkat cells [2] = test: Annexin-V staining of Jurkat cells (apoptosis); assay type: cell-based, human; conditions: 2 d treatment
Method: (§4) Jurkat cells were seeded at 250,000 cells/well (determined by Coulter cell counter) in 12-well polystyrene tissue culture plates in 1.0 mL of media and treated with various concentrations of 1-68A or 2-68A from 50 mM dimethyl sulfoxide (DMSO) stock solutions or doxorubicin or campothecin from 1 mM DMSO stock solutions. After 2 d, cells were harvested, washed twice with PBS buffer (PBS, pH 7.4, 0.1% FCS, 0.1% NaN3 w/v) and stained with FITC-HPA (1 μg/mL) or FITC-Con A (5 μg/mL with 1 mM CaCl2) in PBS, pH 7.4 in the dark for 1 h at 4° C. Cells were washed twice with PBS buffer, resuspended in 300 μL of PBS buffer and analyzed by flow cytometry (FacsCaliber, BD Instruments). Annexin-V staining was performed according to the manufacturer's protocols (Invitrogen).
(§5) To directly monitor ppGalNAcT activities in cells, Jurkat cells (human T-cell lymphoma), which are known to produce only the Tn-antigen (FIG. 1) as their O-linked glycans, were chosen. Piller et al. (1990) J. Biol. Chem. 265:9264-9271. Changes in Tn-antigen expression on the surface of Jurkat cells were monitored by HPA binding followed by flow cytometry analysis. Con A staining of N-linked glycans was used as a control for non-specific inhibition of protein glycosylation. Baenziger and Fiete (1979) J. Biol. Chem. 254:2400-2407.

Jurkat cells [3] = test: HPA staining of Jurkat cells (Tn-antigen), flow cytometry; assay type: cell-based, human; conditions: Homo sapiens, 48 h, read-out: EC50 of inhibition of HPA staining
Method: as §4, §5

T3 sequence (Q6PB93 25-570 limits assumed): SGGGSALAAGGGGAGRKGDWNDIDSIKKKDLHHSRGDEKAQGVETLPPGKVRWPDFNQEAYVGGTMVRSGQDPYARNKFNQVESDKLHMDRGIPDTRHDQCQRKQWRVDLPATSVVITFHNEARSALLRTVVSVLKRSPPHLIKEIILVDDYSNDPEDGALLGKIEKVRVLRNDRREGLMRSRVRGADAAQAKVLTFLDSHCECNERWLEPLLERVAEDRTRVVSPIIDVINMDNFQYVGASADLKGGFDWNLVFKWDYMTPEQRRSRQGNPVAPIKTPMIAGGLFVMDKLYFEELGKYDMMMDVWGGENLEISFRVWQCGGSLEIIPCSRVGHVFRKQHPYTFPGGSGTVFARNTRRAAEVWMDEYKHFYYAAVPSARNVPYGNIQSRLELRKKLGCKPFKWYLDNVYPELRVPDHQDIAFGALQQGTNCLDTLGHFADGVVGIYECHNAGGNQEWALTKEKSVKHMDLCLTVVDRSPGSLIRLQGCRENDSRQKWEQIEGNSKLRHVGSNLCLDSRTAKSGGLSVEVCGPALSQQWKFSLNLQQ

| Compound | IC50 (mppGalNAcT-4) [µM] | identified in library screen against UDP-GlcNAc/GalNAc C4-epimerase [1] | IC50 (mppGalNAcT-2) [µM] | Annexin-V staining (induction of apoptosis) (Jurkat cells [2]) | EC50 (Jurkat cells [3]; Jurkat cells, 2 d treatment) [µM] | EC50 (Jurkat cells [3]; Jurkat) [µM] |
| --- | --- | --- | --- | --- | --- | --- |
| O=c1ccn([C@@H]2O[C@H](CON=Cc3ccc(O)c(O)c3O)[C@@H](O)[C@H]2O)c(=O)[nH]1 [1-68A] | 30 ± 5 | not identified | 15 ± 1 | confirmed the induction of apoptosis | ~80 | – |
| O=C(CON=Cc1ccc(O)c(O)c1O)NC[C@H]1O[C@@H](n2ccc(=O)[nH]c2=O)[C@H](O)[C@@H]1O [2-68A] | 20 ± 5 | not identified | 18 ± 2 | confirmed the induction of apoptosis | – | ~80 |
